Laboratory results reported in patent US20090042849A1, “Phosphorylation of 5-lipoxygenase at ser523 and uses thereof” (priority 2006, published 2009).
“Also recorded” adds a separate entry of the source.

Legend:
[1] = system: 5LO interaction with COX2 / cPLA2; experiment: co-immunoprecipitation of 5LO with COX2 and cPLA2 in rat hearts; assay type: in vivo
Procedure: Rats received: 1) PIO (10 mg/kg/d); 2) ATV (10 mg/kg/d); 3) PIO (10 mg/kg/d)+H89 (20 mg/kg); 4) ATV (10 mg/kg/d)+H89 (20 mg/kg); 5) H89 (20 mg/kg) or 6) water alone (control). PIO and ATV were suspended in water and administered by gastric gavage once daily for 3 days; H-89 was dissolved in DMSO (final concentration 5% v/v) and injected intraperitoneally on the third day. Rats in groups 5 and 6 received water by gastric gavage once daily for 3 days. Rats in groups 1, 2 and 6 received intraperitoneal inkection of DMSO 5%. Sixteen hours after the injection, rats were euthanized and the hearts explanted for further analyses. In another experiment, rats received 3-day pretreatment with: 1) water (sham); 2) PIO (10 mg/kg/d); 3) ATV (10 mg/kg/d); 4) PIO (10 mg/kg/d)+ATV (10 mg/kg/d); or 5) LPS (10 mg/kg).
For co-immunoprecipitation, myocardial cytosolic, membranous and nuclear fractions (500 μg) were incubated with anti-5LO antibodies for 4 h followed by overnight incubation at 4° C. with Protein-A-Agarose. The agarose beads were collected by centrifugation and SDS/PAGE Western immunoblotting was performed with the supernatant fraction. The anti-5LO precipitates were subjected to immunoblotting with anti-COX2 or anti-cPLA2 antibodies.

[2] = system: 15ELXA; experiment: 15ELXA levels in adult rat cardiac myocytes (ELISA); assay type: cell-based
[3] = system: LTB4; experiment: LTB4 levels in adult rat cardiac myocytes (ELISA); assay type: cell-based; conditions: PIO 10 μM, ATV 10 μM, H-89 0.1 μM, 12 hours
Procedure: (§1) Cardiac myocytes were isolated from adult Sprague-Dawley rats (250-300 g, male). Animals were heparinized (1,000-2,000 units i.p.) 5 min before being anesthetized with ketamine (100 mg/kg) and xylazine (10 mg/kg), and the hearts were removed and placed in ice-cold heart media solution (in mmol/l: 112 NaCl, 5.4 KCl, 1 MgCl2, 9 NaH2PO4, and 11.1 D-glucose; supplemented with 10 HEPES, 30 taurine, 2 DL-carnitine, and 2 creatine, pH. 7.4). The hearts were perfused retrogradely in a Langendorff apparatus with Ca^2+-free heart media for 5 min at 5 ml/min at 37° C., followed by perfusion with Ca^2+-free heart media containing collagenase II, 210 U/mg (Worthington, Lakewood, N.J.) for 20 min. After perfusion, both ventricles were removed from the heart and minced in collagenase II-containing heart media for 10-15 min. The cell solution was then washed several times to remove collagenase II and reexposed to 1.2 mM Ca2^+ over 25 min to produce Ca2^+-tolerant cardiac myocytes. Myocytes were then plated in 4% FBS on laminin (2 μg/cm^2)-coated plates for 1 h and incubated at 37° C. in 5% CO2 for 12-24 h before experiments (21). Cells were incubated with 1) vehicle (0.07% ethanol); 2) PIO (10 μM)+ATV (10 μM); 3) H-89 (0.1 μM); or 4) PIO+ATV+H-89 for 12 hours. The supernatants were collected directly for LTB4 analyses by ELISA and the cells were harvested for immunoblotting. […]

[4] = system: cPLA2; experiment: immunofluorescence of cPLA2 in adult rat cardiac myocytes; assay type: cell-based; conditions: PIO 10 μM, ATV 10 μM, H-89 0.1 μM, 12 hours
Procedure: as §1, with “myocytes.” for “myocytes. Myocytes were then plated in 4% FBS on laminin (2 μg/cm^2)-coated plates for 1 h and incubated at 37° C. in 5% CO2 for 12-24 h before experiments (21). Cells were incubated with 1) vehicle (0.07% ethanol); 2) PIO (10 μM)+ATV (10 μM); 3) H-89 (0.1 μM); or 4) PIO+ATV+H-89 for 12 hours. The supernatants were collected directly for LTB4 analyses by ELISA and the cells were harvested for immunoblotting.”
Immunofluorescent labeling was performed on paraffin sections (5-μm) of 4% formaldehyde-fixed rat cardiac tissue, as described previously (22). […] All the slides were viewed under an Olympus BX51 microscope [images recorded by a DP70 Digital camera (Olympus Optical Co., Ltd., Tokyo, Japan)] or confocal microscope (Bio-Rad 2100 (Hercules, Calif.).

| SMILES | fraction in which the co-immunoprecipitation with 5LO occurred ([1]; cytosolic and membranous fractions) | co-immunoprecipitation of COX2 or cPLA2 with 5LO ([1]; whole cell lysate) | effect on the PIO+ATV augmentation of 15ELXA levels ([2]; H-89 0.1 μM with PIO+ATV) | levels of 15ELXA ([2]; PIO 10 μM, ATV 10 μM, H-89 0.1 μM, 12 hours) | LTB4 levels [3] | cPLA2 expression [4] |
| --- | --- | --- | --- | --- | --- | --- |
| CC(C)c1c(C(=O)Nc2ccccc2)c(-c2ccccc2)c(-c2ccc(F)cc2)n1CCC(O)CC(O)CC(=O)O (stereo not drawn) [ATV, 7-[2-(4-fluorophenyl)-5-(1-methylethyl)-3-phenyl-4-(phenylcarbamoyl)-1H-pyrrol-1-yl]-3,5-dihydroxy-heptanoic acid] | in the cytosolic, but not the membranous fraction; also recorded: only in the cytosolic fraction | 5LO precipitated with COX2 and COX2, but not cPLA2, precipitated with 5LO | – | – | – | – |
| O=S(=O)(NCCNC/C=C/c1ccc(Br)cc1)c1cccc2cnccc12 [H-89] | – | – | attenuated | no effect | no significant effect | no effect |
